Here are results for eight compounds from EP0408973B1, “Antiherpes pentapeptides” (BIO-MEGA/BOEHRINGER INGELHEIM RESEARCH INC., priority 1989, dated 1991).

Each structure is given as a SMILES string. Starred links: 1 amine or outer side, 2 acyl side, 3 side chain; linkers in the order of their positions; H or OH if unused. Non-standard residues stand in square brackets, D forms with d. Residues, ends and D or L forms follow the SMILES beside them. *: point of attachment. Ala(1H-tetrazol-5-yl) = N[C@@H](Cc1nnn[nH]1)C(=O)O; X1 = CC(C)[C@@H](C(=O)[*:2])N(CCc1ccccc1)[*:1]; Benzoyl(2-Ph) = O=C(c1ccccc1-c1ccccc1)*; Desaminotyrosyl = O=C(CCc1ccc(O)cc1)*; Butanoyl(4-Ph) = O=C(CCCc1ccccc1)*; Hydrocinnamoyl = O=C(CCc1ccccc1)*; Pentanoyl(4-Me) = CC(C)CCC(=O)*; X3 = CC(C)C[C@H](N*)c1nnn[nH]1; X2 = O=C(c1ccccc1Cc1ccccc1)*; NMeV = CN[C@H](C(=O)O)C(C)C

Chain of HSV-1 ribonucleotide reductase (P08543 whole entry): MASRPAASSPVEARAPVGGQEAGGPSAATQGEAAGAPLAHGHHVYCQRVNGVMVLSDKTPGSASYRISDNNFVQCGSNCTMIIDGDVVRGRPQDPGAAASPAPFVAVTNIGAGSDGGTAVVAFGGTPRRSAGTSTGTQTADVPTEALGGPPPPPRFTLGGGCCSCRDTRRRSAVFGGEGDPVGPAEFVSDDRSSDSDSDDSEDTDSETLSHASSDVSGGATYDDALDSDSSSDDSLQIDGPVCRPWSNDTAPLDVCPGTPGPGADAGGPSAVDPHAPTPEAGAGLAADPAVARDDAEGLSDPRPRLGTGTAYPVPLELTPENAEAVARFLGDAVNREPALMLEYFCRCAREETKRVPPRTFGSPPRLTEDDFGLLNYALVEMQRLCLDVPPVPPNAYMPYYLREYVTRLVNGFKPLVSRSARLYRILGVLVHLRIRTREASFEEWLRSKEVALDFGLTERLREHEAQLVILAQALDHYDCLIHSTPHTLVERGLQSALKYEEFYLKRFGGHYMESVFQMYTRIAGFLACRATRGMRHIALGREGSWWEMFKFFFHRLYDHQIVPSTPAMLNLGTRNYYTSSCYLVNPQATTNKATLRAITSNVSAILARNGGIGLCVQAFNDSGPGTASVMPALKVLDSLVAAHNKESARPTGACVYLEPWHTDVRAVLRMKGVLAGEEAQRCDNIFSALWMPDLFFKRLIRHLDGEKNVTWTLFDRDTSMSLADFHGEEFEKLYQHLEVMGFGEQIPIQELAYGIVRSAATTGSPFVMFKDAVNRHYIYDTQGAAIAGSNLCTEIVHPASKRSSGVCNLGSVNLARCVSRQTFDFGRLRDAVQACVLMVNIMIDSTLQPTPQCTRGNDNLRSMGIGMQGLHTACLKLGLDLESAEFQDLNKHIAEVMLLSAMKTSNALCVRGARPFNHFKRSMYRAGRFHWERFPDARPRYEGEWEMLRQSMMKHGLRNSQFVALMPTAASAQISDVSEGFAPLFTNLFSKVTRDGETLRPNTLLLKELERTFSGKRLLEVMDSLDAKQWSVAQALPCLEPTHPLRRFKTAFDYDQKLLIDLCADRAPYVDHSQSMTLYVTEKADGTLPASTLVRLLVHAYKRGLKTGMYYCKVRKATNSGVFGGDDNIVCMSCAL

This experiment concerns the target HSV-1 ribonucleotide reductase (Human herpesvirus 1, UniProt P08543). Briefly: biochemical. The source says:
Inhibition of Herpes Simplex Virus (HSV, type 1) Ribonucleotide Reductase
• a) Preparation of Enzyme HSV-1 ribonucleotide reductase (partially purified) was obtained from quiescent BHK-21/C13 cells infected with strain F HSV-1 virus at 10 plaque forming units/cell as described by E.A. Cohen et al., J. Gen. […] The number of units of the enzyme preparation used in each assay was constant, based on the specific activity of the enzyme preparation.
Broadly, the IC50 is the concentration that gives 50% inhibition. Low values mean greater potency, high ones weaker potency. Take `CC[C@H](C)[C@H](NC(=O)[C@H](C(C)C)N(C)C(=O)c1ccccc1Cc1ccccc1)C(=O)N[C@@H](CC(N)=O)C(=O)N[C@@H](CC(=O)O)C(=O)N[C@@H](CC(C)C)C(=O)O` (X2-[NMeV]INDL-OH): the IC50 was found to be 5.5 µM.
`CC[C@H](C)[C@H](NC(=O)[C@H](C(C)C)N(C)C(=O)c1ccccc1-c1ccccc1)C(=O)N[C@@H](CC(N)=O)C(=O)N[C@@H](CC(=O)O)C(=O)N[C@@H](CC(C)C)C(=O)O` ({Benzoyl(2-Ph)}-[NMeV]INDL-OH): the IC50 was 2.5 µM.
`CC[C@H](C)[C@H](NC(=O)[C@H](C(C)C)N(C)C(=O)CCC(C)C)C(=O)N[C@@H](CC(N)=O)C(=O)N[C@@H](CC(=O)O)C(=O)N[C@@H](CC(C)C)C(=O)O` [(CH3)2CHCH2CH2CO / CH3 / CONH2 / COOH] ({Pentanoyl(4-Me)}-[NMeV]INDL-OH) registered an IC50 of 7.6 µM.
With `CC[C@H](C)[C@H](NC(=O)[C@H](C(C)C)N(CCc1ccccc1)C(C)=O)C(=O)N[C@@H](CC(N)=O)C(=O)N[C@@H](CC(=O)O)C(=O)N[C@@H](CC(C)C)C(=O)O` [CH3CO / PhCH2CH2 / CONH2 / COOH] (Ac-[X1]INDL-OH), the half-maximal inhibitory concentration (IC50) was 17 µM.
The result for `CC[C@H](C)[C@H](NC(=O)[C@H](C(C)C)N(C)C(=O)CCc1ccc(O)cc1)C(=O)N[C@@H](CC(N)=O)C(=O)N[C@@H](CC(=O)O)C(=O)N[C@@H](CC(C)C)C(=O)O` [DAT / CH3 / CONH2 / COOH, DAT-N-Me-Val-Ile-Asn-Asp-Leu-OH] (Desaminotyrosyl-[NMeV]INDL-OH) reads 6 µM; that for `CC[C@H](C)[C@H](NC(=O)[C@H](C(C)C)N(C)C(=O)CCCc1ccccc1)C(=O)N[C@@H](CC(N)=O)C(=O)N[C@@H](CC(=O)O)C(=O)N[C@@H](CC(C)C)C(=O)O` [PhCH2CH2CH2CO / CH3 / CONH2 / COOH] ({Butanoyl(4-Ph)}-[NMeV]INDL-OH), 6.2 µM.
Turning to `CC[C@H](C)[C@H](NC(=O)[C@H](C(C)C)N(C)C(=O)CCc1ccccc1)C(=O)N[C@@H](Cc1nnn[nH]1)C(=O)N[C@@H](CC(=O)O)C(=O)N[C@@H](CC(C)C)C(=O)O` [PhCH2CH2CO / CH3 / 5-1H-t / COOH, PhCH2CH2CO-N-Me-Val-Ile-NHCH[CH2-5-1H-tetrazole]CO-Asp-Leu-OH] (Hydrocinnamoyl-[NMeV]I[Ala(1H-tetrazol-5-yl)]DL-OH), the IC50 is 2 µM.
Take `CC[C@H](C)[C@H](NC(=O)[C@H](C(C)C)N(C)C(=O)CCc1ccccc1)C(=O)N[C@@H](CC(N)=O)C(=O)N[C@@H](CC(=O)O)C(=O)N[C@@H](CC(C)C)c1nnn[nH]1` [PhCH2CH2CO / CH3 / CONH2 / 5-1H-t, PhCH,CH,CO-N-Me-Val-Ile-Asn-Asp-NHCH[CH2-CH(CH3)2]-5-1H-tetrazole] (Hydrocinnamoyl-[NMeV]IND-X3): the IC50 was found to be 3.8 µM.
